Laboratory results from patent publication US4256750A, “Pharmaceutical compositions” (Wulfing; Johann A., priority 1979, dated 1981).
Values joined by “and” are separate entries in the source; they are usually repeats but may differ in a detail not shown here. Equal entries are not always repeated.

What was measured:
[1] = test system: ischaemic skeletal muscle (calf muscles); assay: Skeletal muscle contractility in anaesthetized cats with restricted femoral blood flow; type: in vivo, cat; details: for change of contractility of ischaemic skeletal muscle (in words) / contractility (% initial value): cat; for change of contractility of ischaemic skeletal muscle (in words): B and C at 5-32 mg/kg compared with Compound A at 125 μg/kg; for contractility (% initial value): ischaemic muscle
Description: (§1) Cats of either sex were anaesthetized with urethane/chloralose (120/60 mg/kg i.p.). In the course of the experiments, pentobarbital was injected intravenously (V. antebrachii ceph.) via a plastic tube. The intraduodenal (i.d.) application of compound was conducted by means of a plastic catheter, which was inserted into the duodenum.
(§2) Cats of either sex were anaesthetized as for pO2 measurement. After dissection of the skin of the calf muscles, the sciatic nerve was cut about 3 cm proximal to the knee. The tendon of the calf muscles was cut and connected with an isometric force transducer (SWEMA, SG 3). In order to maintain constant differences and a resting tension of 100 p, the hind limb was fixed at the tibia by means of a clamp. Direct stimulation of the muscles consisted of square wave pulses of 4 msec duration at a frequency of 2 Hz and at a voltage of 50 V. In order to keep the muscles wet and at a normal temperature, the muscles were continuously superfused by means of a NaCl-solution (0.9%, 38° C.). Femoral blood flow was restricted by a graded occlusion of the artery leading to a reduction of contractility by ca. 30%. After having reached a constant level of the contraction force, the vehicle (NaCl and Methocel, respectively) was injected, followed by the test substance.

[2] = Solubility in water / aqueous media; type: physicochemical
[3] = Blood pressure (BP) change in the cat contractility experiment (Table 3); type: in vivo
Description: as §1, §2

[4] = test system: ischaemic skeletal muscle (m. gastrocnemius); assay: pO2 (oxygen tension) measurement in ischaemic skeletal muscle of anaesthetized cats; type: in vivo, cat; details: for effect of Compound A, ΔpO2: 125 μg/kg i.v.; for effect of Compound A, ΔpO2 / effect of Compound B, ΔpO2: individual cats; for change of pO2 of ischaemic skeletal muscle (in words): B and C at 5-32 mg/kg compared with Compound A at 125 μg/kg; for effect of Compound B, ΔpO2: 5 mg/kg i.v.
Description: pO2 was measured polarographically using Pt-needle electrodes (modified according to Baumgartl and Lubbers, 1973). The reference electrode, an Ag/A/AgCl system was sputtered on the glass mantle of the cathode, or it was a separate electrode. The cathode was coated with a polystyrol and a collodium membrane. A constant voltage supply provided a polarizing voltage between 600 and 800 mV. The reducing current was measured by a nano-ampere amplifying meter. The cathode was inserted in the tissue by means of a motor-driven micromanipulator.
A pO2 -electrode was inserted in the muscle tissue (m. gastrocnemius) of both hindlegs of an anaesthetized cat. After recording the pO2 of the normal perfused muscle, the blood flow to one measuring site was restricted by ligating the femoral artery. The pO2 dropped steeply and the tissue became ischaemic. After a few minutes, the pO2 increased and then decreased again. The values were constant after 30 to 60 min. After having reached a constant level of pO2, the vehicle was given, followed by the test substance.
The mean value and the standard deviation were calculated, in order to check the significance of the effect.

[5] = in vivo; cited from earlier work
[6] = i.d., Compound A 125 μg/kg, Compound B 32 mg/kg, Compound C 12.5 mg/kg
[7] = i.v., Compound A 50 μg/kg, Compound B 5 mg/kg
[8] = control (hind limb not ligated)
[9] = contractility and pO2 of ischaemic skeletal muscle, cat

CCCCn1c(=O)c2c(ncn2CC(C)=O)n(CCCC)c1=O [Compound A, 1,3-di-n-butyl-7-(2-oxopropyl)xanthine]
Δ muscle contract., t (time interval to reach initial values) ([1]; 50 μg/kg i.v.): > 60 min | Δ muscle contract. ([1]; 50 μg/kg i.v., mean, n 4): +36.0 percentage of initial values | Δ muscle contract., t (time interval to reach initial values) ([1]; 125 μg/kg i.v.): > 60 min | Δ muscle contract. ([1]; 125 μg/kg i.v., mean): +19.0 percentage of initial values | Δ muscle contract. ([1]; 313 μg/kg i.v., n = 1): +25.0 percentage of initial values | Δ muscle contract., t (time interval to reach initial values) ([1]; 313 μg/kg i.v., n = 1): > 60 min | change of contractility of ischaemic skeletal muscle (in words) [1]: distinct increase | contractility (% initial value) [1, 6]: 32 % initial value | contractility (% initial value) [1, 7]: 36 % initial value | solubility in aqueous media (in words) ([2]; aqueous media): only sparingly soluble | Δ initial phase BP decrease, t (time interval to reach initial values) ([3]; 50 μg/kg i.v.): 2 min | Δ second phase BP increase, t (time interval to reach initial values) ([3]; 50 μg/kg i.v.): 33 min | Δ initial phase BP decrease ([3]; 50 μg/kg i.v., mean, n 4): -14.0 percentage of initial values | Δ second phase BP increase ([3]; 50 μg/kg i.v., mean, n 4): +17.0 percentage of initial values | Δ initial phase BP decrease, t (time interval to reach initial values) ([3]; 125 μg/kg i.v.): 3 min | Δ second phase BP increase, t (time interval to reach initial values) ([3]; 125 μg/kg i.v.): 32 min | Δ initial phase BP decrease ([3]; 125 μg/kg i.v., mean): -23.1 percentage of initial values | Δ second phase BP increase ([3]; 125 μg/kg i.v., mean): +10.8 percentage of initial values | Δ initial phase BP decrease ([3]; 313 μg/kg i.v., n = 1): -25.0 percentage of initial values | Δ initial phase BP decrease, t (time interval to reach initial values) ([3]; 313 μg/kg i.v., n = 1): 2 min | Δ second phase BP increase ([3]; 313 μg/kg i.v., n = 1): +15.0 percentage of initial values | Δ second phase BP increase, t (time interval to reach initial values) ([3]; 313 μg/kg i.v., n = 1): 6 min | effect of Compound A, ΔpO2 [4, 8]: 13.2 Torr and 3.8 Torr and 3.5 Torr and 19.3 Torr and 3.4 Torr | effect of Compound A, ΔpO2 ([4]; hind limb art. ligation): 6.2 Torr and 7.3 Torr and 5.2 Torr and 27.1 Torr and 11.2 Torr and 5.6 Torr | change of pO2 of ischaemic skeletal muscle (in words) ([4]; cat): distinct increase | high activity in the μg-range (dose range) [4, 9]: 0.05 to 0.125 mg/kg

CC(=O)CCCCn1c(=O)c2c(ncn2C)n(C)c1=O [Compound B, pentoxyphylline, reference compound]
change of contractility of ischaemic skeletal muscle (in words) [1]: less pronounced | contractility (% initial value) [1, 6]: 23 % initial value | contractility (% initial value) [1, 7]: 9 % initial value | oral toxicity (in words) [5]: low oral toxicity | effect of Compound B, ΔpO2 [4, 8]: 0.3 Torr and 1.02 Torr and -2.4 Torr and 14.3 Torr and -0.9 Torr | effect of Compound B, ΔpO2 ([4]; hind limb art. ligation): -0.16 Torr and -1.5 Torr | Mean effect of Compound B compared to Compound A ([4]; B 5 mg/kg vs A 125 μg/kg, i.v.): 21.3% | change of pO2 of ischaemic skeletal muscle (in words) ([4]; cat): less pronounced

CCCCn1c(=O)c2c(ncn2CCC(C)=O)n(CCCC)c1=O [Compound C, 1,3-di-n-butyl-7-(3-oxobutyl)xanthine, reference compound]
change of contractility of ischaemic skeletal muscle (in words) [1]: less pronounced | contractility (% initial value) [1, 6]: 22 % initial value | water solubility (in words) ([2]; water, reason for not testing i.v.): low water solubility | change of pO2 of ischaemic skeletal muscle (in words) ([4]; cat): less pronounced | dose range of activity [4, 9]: 5 to 32 mg/kg
